Measured values as given in paper PMC11702666, “The anti-COVID-19 drug Paxlovid crosses biological barriers of the placenta and brain in rats” (npj Viruses, 2024).
Entries after “also recorded” stand apart in the source; their conditions may differ. Where two headings read alike, the source gives them in different places.

What was measured:
[1] = for nirmatrelvir concentration in dialysate sample: 60 min after nirmatrelvir 15 mg/kg i.v., representative sample
[2] = tested on: zebrafish embryo; settings: zebrafish embryo model; therapeutic doses in humans; cited from earlier work
[3] = for Autosampler stability: 4°C for 6 hours; for Long-term stability: -20°C for 1 month; for Bench-top stability: room temperature for 6 hours; for Freeze‒thaw stability: three cycles
[4] = PBPK model LeiCNS-PK3.0; recommended dosing regimen; cited from earlier work
[5] = tested on: SARS-CoV-2; parameters: method as in PMID 34726479; settings: 90% inhibition of viral replication, cited from earlier work
[6] = in vivo; settings: male, Sprague-Dawley, rat, iv, 15 mg/kg; for AUC(0-t): AUClast; for AUC(0-t) / clearance / Cmax / MRT / Tmax / half-life: male rats; for clearance: CL (clearance); for MRT: MRT (mean residence time); for half-life: t1/2 (elimination half-life)
[7] = oral; cited from earlier work
[8] = in vivo; settings: female, Sprague-Dawley, rat, iv, pregnant rats; for AUC(0-t): AUClast; for Kp: AUCtissue/AUCblood (maternal blood-to-tissue transfer ratio); for clearance: CL (clearance); for MRT: MRT (mean residence time); for half-life: t1/2 (elimination half-life)
[9] = for nirmatrelvir concentration in dialysate sample: 60 min after nirmatrelvir 15 mg/kg i.v., representative sample; remark: listed apart in the source
[10] = in vivo; settings: female, Sprague-Dawley, rat, iv, 15 mg/kg; for AUC(0-t): AUClast; for AUC(0-t) / clearance / Cmax / MRT / Tmax / half-life: nonpregnant female rats; for clearance: CL (clearance); for MRT: MRT (mean residence time); for half-life: t1/2 (elimination half-life)
[11] = amniotic fluid dialysate, 5 ng/mL
[12] = amniotic fluid dialysate, 250 ng/mL
[13] = male rat blood dialysate, 5 ng/mL
[14] = male rat blood dialysate, 250 ng/mL
[15] = male rat brain dialysate, 5 ng/mL
[16] = male rat brain dialysate, 250 ng/mL
[17] = pregnant rat maternal blood dialysate, 5 ng/mL
[18] = pregnant rat maternal blood dialysate, 250 ng/mL
[19] = blood, nirmatrelvir 15 mg/kg i.v. alone
[20] = blood, nirmatrelvir 15 mg/kg i.v. plus ritonavir 7 mg/kg i.v.
[21] = brain, nirmatrelvir 15 mg/kg i.v. alone
[22] = brain, nirmatrelvir 15 mg/kg i.v. plus ritonavir 7 mg/kg i.v.
[23] = 15 mg/kg, amniotic fluid, nirmatrelvir 15 mg/kg i.v. alone
[24] = 15 mg/kg, amniotic fluid, nirmatrelvir 15 mg/kg i.v. plus ritonavir 7 mg/kg i.v.
[25] = 15 mg/kg, fetus, nirmatrelvir 15 mg/kg i.v. alone
[26] = 15 mg/kg, fetus, nirmatrelvir 15 mg/kg i.v. plus ritonavir 7 mg/kg i.v.
[27] = 15 mg/kg, maternal blood, nirmatrelvir 15 mg/kg i.v. alone
[28] = 15 mg/kg, maternal blood, nirmatrelvir 15 mg/kg i.v. plus ritonavir 7 mg/kg i.v.
[29] = 15 mg/kg, placenta, nirmatrelvir 15 mg/kg i.v. alone
[30] = 15 mg/kg, placenta, nirmatrelvir 15 mg/kg i.v. plus ritonavir 7 mg/kg i.v.

In the case of CC(C)(C)[C@H](NC(=O)C(F)(F)F)C(=O)N1C[C@H]2[C@@H]([C@H]1C(=O)N[C@H](C#N)C[C@@H]1CCNC1=O)C2(C)C [Nirmatrelvir], the “nirmatrelvir concentration in dialysate sample” value ([1]; amniotic fluid dialysate) is reported as 27.61 ng/mL, the “nirmatrelvir concentration in dialysate sample” value ([1]; fetus dialysate) is reported as 37 ng/mL and the “nirmatrelvir concentration in dialysate sample” value ([1]; maternal blood dialysate) is reported as 344.8 ng/mL. For the same molecule, the “nirmatrelvir concentration in dialysate sample” value ([1]; placenta dialysate) was 95.13 ng/mL, the “nirmatrelvir level in conceptus (fetus, placenta, amniotic fluid) versus EC90” value ([1]; pregnant rats, regular dose of Paxlovid) was “higher than the EC90” and the “increase of Cmax in blood, combined vs alone” value (nonpregnant female rats, blood, coadministration with ritonavir vs nirmatrelvir alone) was “threefold”. The “protein unbound nirmatrelvir concentrations in blood and brain versus EC90” value (nonpregnant rats) was “all higher than the EC90”, the “survival rates and morphological defects” value [2] was “does not affect survival rates or induce morphological defects; also recorded: did not affect survival rates or induce morphological defects” and the Autosampler stability [3, 11] was 101.84 ± 1.89%. For the same molecule, the Long-term stability [3, 11] was 97.21 ± 0.39%, the Bench-top stability [3, 11] was 104.82 ± 1.50% and the “Freeze‒thaw stability” value [3, 11] was 107.43 ± 5.37%. The Autosampler stability [3, 12] was 102.44 ± 2.35%, the Long-term stability [3, 12] was 93.43 ± 1.54% and the Bench-top stability [3, 12] was 98.60 ± 1.46%. For the same molecule, the “Freeze‒thaw stability” value [3, 12] was 99.39 ± 4.32%, the Autosampler stability ([3]; fetus dialysate, 5 ng/mL) was 95.10 ± 0.47% and the Long-term stability ([3]; fetus dialysate, 5 ng/mL) was 95.20 ± 1.21%. For the same molecule, the Bench-top stability ([3]; fetus dialysate, 5 ng/mL) was 102.37 ± 2.51%, the “Freeze‒thaw stability” value ([3]; fetus dialysate, 5 ng/mL) was 107.56 ± 0.63% and the Autosampler stability ([3]; fetus dialysate, 250 ng/mL) was 97.12 ± 1.94%. The Long-term stability ([3]; fetus dialysate, 250 ng/mL) was 91.79 ± 1.56%, the Bench-top stability ([3]; fetus dialysate, 250 ng/mL) was 101.02 ± 0.48% and the “Freeze‒thaw stability” value ([3]; fetus dialysate, 250 ng/mL) was 98.02 ± 2.49%. The Autosampler stability [3, 13] was 95.56 ± 6.20%, the Long-term stability [3, 13] was 89.61 ± 1.00% and the Bench-top stability [3, 13] was 104.5 ± 1.73%. For the same molecule, the “Freeze‒thaw stability” value [3, 13] was 100.3 ± 3.40%, the Autosampler stability [3, 14] was 94.23 ± 4.18% and the Long-term stability [3, 14] was 88.54 ± 1.07%. The Bench-top stability [3, 14] was 97.60 ± 0.73%, the “Freeze‒thaw stability” value [3, 14] was 88.57 ± 0.33% and the Autosampler stability [3, 15] was 92.51 ± 2.01%. The Long-term stability [3, 15] was 90.07 ± 2.77%, the Bench-top stability [3, 15] was 100.6 ± 0.37% and the “Freeze‒thaw stability” value [3, 15] was 99.58 ± 1.02%. The Autosampler stability [3, 16] was 93.59 ± 4.41%, the Long-term stability [3, 16] was 87.36 ± 2.58% and the Bench-top stability [3, 16] was 95.79 ± 0.24%. For the same molecule, the “Freeze‒thaw stability” value [3, 16] was 92.01 ± 0.29%, the Autosampler stability ([3]; placenta dialysate, 5 ng/mL) was 101.55 ± 6.56% and the Long-term stability ([3]; placenta dialysate, 5 ng/mL) was 97.38 ± 0.55%. The Bench-top stability ([3]; placenta dialysate, 5 ng/mL) was 100.37 ± 1.24%, the “Freeze‒thaw stability” value ([3]; placenta dialysate, 5 ng/mL) was 101.85 ± 4.27% and the Autosampler stability ([3]; placenta dialysate, 250 ng/mL) was 98.14 ± 3.84%. The Long-term stability ([3]; placenta dialysate, 250 ng/mL) was 88.97 ± 1.33%, the Bench-top stability ([3]; placenta dialysate, 250 ng/mL) was 98.87 ± 0.27% and the “Freeze‒thaw stability” value ([3]; placenta dialysate, 250 ng/mL) was 100.83 ± 0.95%. For the same molecule, the Autosampler stability [3, 17] was 102.98 ± 4.81%, the Long-term stability [3, 17] was 87.18 ± 0.87% and the Bench-top stability [3, 17] was 96.42 ± 2.53%. The “Freeze‒thaw stability” value [3, 17] was 101.21 ± 2.66%, the Autosampler stability [3, 18] was 98.97 ± 4.80% and the Long-term stability [3, 18] was 87.65 ± 1.83%. For the same molecule, the Bench-top stability [3, 18] was 98.68 ± 1.18%, the “Freeze‒thaw stability” value [3, 18] was 105.98 ± 2.99% and the “predicted brain penetration / effective concentrations against SARS-CoV-2” value [4] was “achieves effective concentrations against SARS-CoV-2 in human brain cells”. For the same molecule, the “unbound EC90” value [5] was 0.0905 µg/mL, the EC90 ([5]; unbound) was 181 nM and the Kp [6] was 0.26 ± 0.03. It also gave an AUC(0-t) [6, 19] of 12900 ng·h/mL, an AUC(0-t) [6, 20] of 80500 ng·h/mL and an AUC(0-t) [6, 21] of 3540 ng·h/mL. It also gave an AUC(0-t) [6, 22] of 5190 ng·h/mL, a clearance [6, 19] of 21 ± 2.8 mL/min/kg and a clearance [6, 20] of 3.16 ± 0.18 mL/min/kg. For the same molecule, the Cmax [6, 19] was 26500 ± 4450 ng/mL, the Cmax [6, 20] was 94500 ± 27600 ng/mL and the Cmax [6, 21] was 2520 ± 320 ng/mL. It also gave a Cmax [6, 22] of 2020 ± 350 ng/mL, an MRT [6, 19] of 0.717 h and an MRT [6, 20] of 2.32 h. For the same molecule, the MRT [6, 21] was 1.53 h, the MRT [6, 22] was 3.4 h and the Tmax [6, 21] was 0.333 h. The Tmax [6, 22] was 0.45 h, the half-life [6, 20] was 0.833 ± 0.15 h and the half-life [6, 21] was 1.1 ± 0.117 h. For the same molecule, the half-life [6, 22] was 2.05 ± 0.367 h, the bioavailability [7] was “approximately 50%” and the AUC(0-t) [8, 23] was 4740 ng·h/mL. The AUC(0-t) [8, 24] was 17200 ng·h/mL, the AUC(0-t) [8, 25] was 2830 ng·h/mL and the AUC(0-t) [8, 26] was 5720 ng·h/mL. For the same molecule, the AUC(0-t) [8, 27] was 52200 ng·h/mL, the AUC(0-t) [8, 28] was 120000 ng·h/mL and the AUC(0-t) [8, 29] was 8010 ng·h/mL. For the same molecule, the AUC(0-t) [8, 30] was 18000 ng·h/mL, the Kp [8, 23] was 0.12 ± 0.03 and the Kp [8, 25] was 0.06 ± 0.01. It also gave a Kp [8, 29] of 0.15 ± 0.03, a clearance [8, 27] of 5 ± 0.4 mL/min/kg and a clearance [8, 28] of 2.14 ± 0.15 mL/min/kg. It also gave a Cmax [8, 23] of 1840 ± 490 ng/mL, a Cmax [8, 24] of 6590 ± 1840 ng/mL and a Cmax [8, 25] of 960 ± 190 ng/mL. It also gave a Cmax [8, 26] of 1720 ± 600 ng/mL, a Cmax [8, 27] of 156000 ± 24000 ng/mL and a Cmax [8, 28] of 171000 ± 52300 ng/mL. The Cmax [8, 29] was 3560 ± 320 ng/mL, the Cmax [8, 30] was 4400 ± 820 ng/mL and the MRT [8, 23] was 4.83 h. The MRT [8, 24] was 7.62 h, the MRT [8, 25] was 5.13 h and the MRT [8, 26] was 21.1 h. The MRT [8, 27] was 0.8 h, the MRT [8, 28] was 3.22 h and the MRT [8, 29] was 2.53 h. For the same molecule, the MRT [8, 30] was 6.92 h, the Tmax [8, 23] was 1.05 h and the Tmax [8, 24] was 3.6 h. The Tmax [8, 25] was 1.17 h, the Tmax [8, 26] was 3.93 h and the Tmax [8, 29] was 0.667 h. The Tmax [8, 30] was 2.2 h, the half-life [8, 23] was 2.78 ± 0.683 h and the half-life [8, 24] was 4.02 ± 1.75 h. The half-life [8, 25] was 3.03 ± 1 h, the half-life [8, 26] was 13.7 ± 9.1 h and the half-life [8, 27] was 0.25 ± 0.0167 h. The half-life [8, 28] was 0.667 ± 0.117 h, the half-life [8, 30] was 4.27 ± 0.65 h and the Kp ([8]; amniotic fluid, nirmatrelvir 15 mg/kg i.v. plus ritonavir 7 mg/kg i.v.) was 0.2 ± 0.07. The Kp ([8]; fetus, nirmatrelvir 15 mg/kg i.v. plus ritonavir 7 mg/kg i.v.) was 0.06 ± 0.02, the Kp ([8]; placenta, nirmatrelvir 15 mg/kg i.v. plus ritonavir 7 mg/kg i.v.) was 0.13 ± 0.02 and the “nirmatrelvir concentration in dialysate sample” value ([9]; blood dialysate) was 78.01 ng/mL. For the same molecule, the “nirmatrelvir concentration in dialysate sample” value ([9]; brain dialysate) was 36.36 ng/mL, the “protein unbound nirmatrelvir concentrations in blood and brain versus EC90” value ([9]; male rats) was “all higher than the EC90” and the Kp [10] was 0.21 ± 0.04. It also gave an AUC(0-t) [10, 19] of 16800 ng·h/mL, an AUC(0-t) [10, 20] of 69400 ng·h/mL and an AUC(0-t) [10, 21] of 3120 ng·h/mL. The AUC(0-t) [10, 22] was 5280 ng·h/mL, the clearance [10, 19] was 16 ± 2.02 mL/min/kg and the clearance [10, 20] was 3.73 ± 0.29 mL/min/kg. The Cmax [10, 19] was 35600 ± 2110 ng/mL, the Cmax [10, 20] was 107000 ± 7400 ng/mL and the Cmax [10, 21] was 2420 ± 460 ng/mL. For the same molecule, the Cmax [10, 22] was 2330 ± 390 ng/mL, the MRT [10, 19] was 0.667 h and the MRT [10, 20] was 1.32 h. For the same molecule, the MRT [10, 21] was 1.55 h, the MRT [10, 22] was 2.2 h and the Tmax [10, 21] was 0.333 h. The Tmax [10, 22] was 0.6 h, the half-life [10, 19] was 0.333 ± 0.0333 h and the half-life [10, 20] was 0.417 ± 0.0167 h. For the same molecule, the half-life [10, 21] was 1.08 ± 0.117 h and the half-life [10, 22] was 1.07 ± 0.2 h.
